≈ marks a conversion by molar mass, not a printed value.
Tests used:
Escherichia coli [1] = experiment: In vitro antibacterial activity against isolated Escherichia coli DC2; assay type: functional
Moraxella catarrhalis = experiment: In vitro antibacterial activity against isolated Moraxella catarrhalis RA21; assay type: functional
Peptide deformylase = target: T1, Peptide deformylase (Escherichia coli, UniProt Q9JN24); experiment: Inhibitory activity against isolated Escherichia coli peptidyl deformylase (PDF) enzyme containing iron.
T1 sequence (Q9JN24 whole entry): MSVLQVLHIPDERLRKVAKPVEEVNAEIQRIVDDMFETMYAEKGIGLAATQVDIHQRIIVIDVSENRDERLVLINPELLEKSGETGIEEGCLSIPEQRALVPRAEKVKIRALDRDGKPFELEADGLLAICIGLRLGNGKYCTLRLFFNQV

[2] = target: T2, Endothelin-converting enzyme 1 (Homo sapiens, UniProt P42892); experiment: Inhibitory activity against Endothelin-converting enzyme 1
T2 sequence (P42892 whole entry): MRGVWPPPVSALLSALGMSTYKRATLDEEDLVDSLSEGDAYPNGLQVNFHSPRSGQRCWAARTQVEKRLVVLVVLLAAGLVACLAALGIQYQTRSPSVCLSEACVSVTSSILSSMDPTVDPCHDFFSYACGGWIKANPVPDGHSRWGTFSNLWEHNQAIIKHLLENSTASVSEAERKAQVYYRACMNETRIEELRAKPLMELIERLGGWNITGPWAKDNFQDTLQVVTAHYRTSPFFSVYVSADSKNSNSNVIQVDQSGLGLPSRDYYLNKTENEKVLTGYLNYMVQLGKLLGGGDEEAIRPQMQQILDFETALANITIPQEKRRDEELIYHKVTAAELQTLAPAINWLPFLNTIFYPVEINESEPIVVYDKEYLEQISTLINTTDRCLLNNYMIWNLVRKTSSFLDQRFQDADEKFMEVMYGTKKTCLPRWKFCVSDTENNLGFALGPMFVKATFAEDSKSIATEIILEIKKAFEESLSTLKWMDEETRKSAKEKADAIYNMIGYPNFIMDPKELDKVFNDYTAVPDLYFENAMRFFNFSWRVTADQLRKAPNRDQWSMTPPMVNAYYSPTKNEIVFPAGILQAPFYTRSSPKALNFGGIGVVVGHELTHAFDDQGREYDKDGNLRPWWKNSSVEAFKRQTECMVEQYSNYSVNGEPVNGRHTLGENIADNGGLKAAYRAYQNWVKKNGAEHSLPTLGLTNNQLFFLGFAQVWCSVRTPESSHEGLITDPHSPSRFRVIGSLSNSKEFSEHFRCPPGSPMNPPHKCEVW

Matrilysin = Matrilysin (Homo sapiens, UniProt P09237); experiment: Inhibition of matrilysin, Matrix metalloprotease-7
Matrilysin, sequence (P09237 whole entry): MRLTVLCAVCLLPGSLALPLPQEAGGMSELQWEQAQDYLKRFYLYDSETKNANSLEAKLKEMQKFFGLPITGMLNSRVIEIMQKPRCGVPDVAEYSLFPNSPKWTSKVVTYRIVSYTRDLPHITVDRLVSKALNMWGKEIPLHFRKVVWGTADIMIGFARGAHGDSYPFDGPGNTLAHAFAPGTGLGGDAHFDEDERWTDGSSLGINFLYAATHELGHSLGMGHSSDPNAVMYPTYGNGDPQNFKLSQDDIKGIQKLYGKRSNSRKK

Collagenase 3 = Collagenase 3 (Homo sapiens, UniProt P45452); experiment: Inhibition of Matrix metalloprotease-13
Interstitial collagenase = target: T3, Interstitial collagenase (Homo sapiens, UniProt P03956); experiment: Inhibition of Matrix metalloprotease-1
T3 sequence (P03956 whole entry): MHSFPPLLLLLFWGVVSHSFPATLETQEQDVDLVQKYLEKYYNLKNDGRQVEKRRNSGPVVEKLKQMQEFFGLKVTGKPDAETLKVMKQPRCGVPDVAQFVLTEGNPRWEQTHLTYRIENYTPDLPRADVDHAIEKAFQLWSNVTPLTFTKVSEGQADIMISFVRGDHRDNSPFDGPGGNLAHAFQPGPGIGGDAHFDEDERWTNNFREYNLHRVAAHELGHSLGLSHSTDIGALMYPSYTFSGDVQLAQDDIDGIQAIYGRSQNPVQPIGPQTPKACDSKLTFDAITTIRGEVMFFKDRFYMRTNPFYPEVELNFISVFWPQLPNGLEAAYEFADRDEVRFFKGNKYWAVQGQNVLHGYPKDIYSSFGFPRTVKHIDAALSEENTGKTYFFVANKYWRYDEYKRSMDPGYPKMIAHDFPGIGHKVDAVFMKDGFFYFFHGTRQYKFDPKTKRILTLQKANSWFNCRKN

[3] = target: Macrophage metalloelastase (Homo sapiens, UniProt P39900); experiment: Inhibition of human Matrix metalloprotease-12
Macrophage metalloelastase, sequence (P39900 whole entry): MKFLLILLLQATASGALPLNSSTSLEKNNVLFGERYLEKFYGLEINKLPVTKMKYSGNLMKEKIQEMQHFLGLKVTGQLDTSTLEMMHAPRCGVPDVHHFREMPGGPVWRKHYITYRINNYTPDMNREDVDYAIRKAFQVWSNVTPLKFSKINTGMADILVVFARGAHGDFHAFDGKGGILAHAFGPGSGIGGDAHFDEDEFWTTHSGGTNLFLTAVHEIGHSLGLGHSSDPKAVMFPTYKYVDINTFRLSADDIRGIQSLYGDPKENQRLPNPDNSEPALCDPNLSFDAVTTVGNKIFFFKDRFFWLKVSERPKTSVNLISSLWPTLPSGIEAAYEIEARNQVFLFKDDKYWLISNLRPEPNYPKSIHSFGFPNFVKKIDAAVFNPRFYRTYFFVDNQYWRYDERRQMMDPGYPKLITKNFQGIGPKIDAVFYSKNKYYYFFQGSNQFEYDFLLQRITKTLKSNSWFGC

Neprilysin [4] = target: T4, Neprilysin (Rattus norvegicus, UniProt P07861); experiment: Inhibitory activity against neutral endopeptidase enzyme (NEP).
T4 sequence (P07861 whole entry): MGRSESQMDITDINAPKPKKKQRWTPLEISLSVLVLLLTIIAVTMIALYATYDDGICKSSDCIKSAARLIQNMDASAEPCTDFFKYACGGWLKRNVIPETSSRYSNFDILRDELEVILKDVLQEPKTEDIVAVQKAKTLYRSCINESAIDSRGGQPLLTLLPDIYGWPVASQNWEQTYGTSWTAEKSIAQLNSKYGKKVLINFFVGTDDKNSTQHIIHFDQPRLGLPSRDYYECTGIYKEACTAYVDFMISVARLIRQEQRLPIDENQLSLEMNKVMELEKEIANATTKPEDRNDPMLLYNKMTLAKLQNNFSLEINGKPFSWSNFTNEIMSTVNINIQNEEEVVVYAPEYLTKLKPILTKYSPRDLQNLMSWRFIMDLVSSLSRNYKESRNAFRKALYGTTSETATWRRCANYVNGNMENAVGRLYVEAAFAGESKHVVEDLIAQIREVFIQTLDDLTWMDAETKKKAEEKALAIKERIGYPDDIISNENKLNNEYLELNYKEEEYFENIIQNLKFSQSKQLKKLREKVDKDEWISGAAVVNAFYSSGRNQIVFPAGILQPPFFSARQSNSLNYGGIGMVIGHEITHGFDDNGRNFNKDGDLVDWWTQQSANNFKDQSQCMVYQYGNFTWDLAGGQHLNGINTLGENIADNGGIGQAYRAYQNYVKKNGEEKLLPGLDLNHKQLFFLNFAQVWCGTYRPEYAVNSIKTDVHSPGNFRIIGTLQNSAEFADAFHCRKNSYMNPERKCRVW

[5] = target: Angiotensin-converting enzyme (Homo sapiens, UniProt P12821)
Angiotensin-converting enzyme, sequence (P12821 whole entry): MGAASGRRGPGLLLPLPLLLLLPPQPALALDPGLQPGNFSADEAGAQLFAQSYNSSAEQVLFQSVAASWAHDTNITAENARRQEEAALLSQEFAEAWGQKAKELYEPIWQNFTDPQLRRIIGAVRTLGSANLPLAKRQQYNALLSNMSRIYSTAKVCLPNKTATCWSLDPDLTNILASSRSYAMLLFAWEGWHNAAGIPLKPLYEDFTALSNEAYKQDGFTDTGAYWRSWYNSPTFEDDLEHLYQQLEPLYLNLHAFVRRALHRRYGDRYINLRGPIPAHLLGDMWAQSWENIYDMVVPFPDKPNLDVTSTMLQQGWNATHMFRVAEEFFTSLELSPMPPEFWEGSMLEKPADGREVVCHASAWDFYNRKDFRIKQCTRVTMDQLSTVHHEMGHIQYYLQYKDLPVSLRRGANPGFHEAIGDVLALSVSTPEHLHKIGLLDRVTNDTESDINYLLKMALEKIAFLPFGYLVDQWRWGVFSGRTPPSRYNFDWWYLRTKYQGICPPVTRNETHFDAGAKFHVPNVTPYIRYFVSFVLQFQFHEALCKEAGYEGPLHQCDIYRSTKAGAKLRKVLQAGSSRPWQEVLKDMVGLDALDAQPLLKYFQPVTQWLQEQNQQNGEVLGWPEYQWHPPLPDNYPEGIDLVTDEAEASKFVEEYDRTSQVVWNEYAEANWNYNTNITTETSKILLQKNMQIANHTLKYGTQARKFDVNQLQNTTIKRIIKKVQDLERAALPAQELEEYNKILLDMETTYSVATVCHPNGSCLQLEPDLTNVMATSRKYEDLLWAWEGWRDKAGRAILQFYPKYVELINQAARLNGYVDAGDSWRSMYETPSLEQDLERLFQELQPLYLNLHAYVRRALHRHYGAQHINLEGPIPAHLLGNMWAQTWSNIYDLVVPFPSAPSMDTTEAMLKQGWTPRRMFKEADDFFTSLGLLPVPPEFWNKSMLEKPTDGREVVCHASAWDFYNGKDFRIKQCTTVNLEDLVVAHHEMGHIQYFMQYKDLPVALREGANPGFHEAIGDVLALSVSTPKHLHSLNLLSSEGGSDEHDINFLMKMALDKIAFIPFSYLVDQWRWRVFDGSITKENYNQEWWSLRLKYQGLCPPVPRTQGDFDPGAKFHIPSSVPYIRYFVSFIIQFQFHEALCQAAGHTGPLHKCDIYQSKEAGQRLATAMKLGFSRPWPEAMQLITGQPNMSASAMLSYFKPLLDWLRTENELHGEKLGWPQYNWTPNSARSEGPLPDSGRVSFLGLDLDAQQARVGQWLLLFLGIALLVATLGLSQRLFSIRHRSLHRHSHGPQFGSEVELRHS

Neprilysin [6] = target: T4, Neprilysin; experiment: Inhibitory activity against endopeptidase enzyme (NEP).
Bacillus subtilis = experiment: In vitro antibacterial activity against Bacillus subtilis ATCC 585969.; assay type: functional
Chlamydia pneumoniae = experiment: In vitro antibacterial activity against Chlamydia pneumoniae AR-39.; assay type: functional
Escherichia coli [7] = experiment: In vitro antibacterial activity against Escherichia coli ATCC 25922.; assay type: functional
Enterococcus faecalis = experiment: In vitro antibacterial activity against Enterococcus faecalis ATCC 29212.; assay type: functional
Enterococcus faecium = experiment: In vitro antibacterial activity against Enterococcus faecium vanA E25_1.; assay type: functional
Haemophilus influenzae = experiment: In vitro antibacterial activity against Haemophilus influenzae 11.; assay type: functional
[8] = test system: Mycoplasmoides pneumoniae; experiment: In vitro antibacterial activity against Mycoplasma pneumoniae ATCC 29342.; assay type: functional
Pseudomonas aeruginosa = experiment: In vitro antibacterial activity against Pseudomonas aeruginosa ATCC 27853.; assay type: functional
Staphylococcus aureus = experiment: In vitro antibacterial activity against Staphylococcus aureus ATCC 25923.; assay type: functional
Streptococcus pneumoniae [9] = experiment: In vitro antibacterial activity against Streptococcus pneumoniae ATCC 49619.; assay type: functional
[10] = test system: Stenotrophomonas maltophilia; experiment: In vitro antibacterial activity against Stenotrophomonas maltophilia 1AC739.; assay type: functional
Streptococcus pneumoniae [11] = experiment: In vitro antibacterial activity against Streptococcus pneumoniae 1/1 (penicillin resistant).; assay type: functional

Compound	MIC (Escherichia coli [1])	MIC (Moraxella catarrhalis)	IC50 (Peptide deformylase)	also measured
CCCC(CC(=O)NO)S(=O)(=O)c1ccccc1 (stereo not given)	64 µg/mL (≈ 236 µM)	4 µg/mL (≈ 14.7 µM)	160 nM	–
CCCCC(CC(=O)NO)S(=O)(=O)C1CCCCC1 (stereo not given)	8 µg/mL (≈ 27.5 µM)	< 0.25 µg/mL	–	IC50 [2]: 78000 nM; IC50 (Matrilysin): 290 nM; IC50 (Collagenase 3): 100 nM; IC50 (Interstitial collagenase): 54 nM; IC50 [3]: 14 nM; IC50 (Neprilysin [4]): 1650 nM; IC50 [5]: > 100000 nM
CCCCC(CC(=O)NO)[S+]([O-])c1ccc2ccccc2c1 (stereo not given)	2 µg/mL (≈ 6.26 µM)	< 0.25 µg/mL	64 nM	–
CCCCC(CC(=O)NO)[S+]([O-])c1cccc(OC)c1 (stereo not given)	4 µg/mL (≈ 13.4 µM)	0.25 µg/mL (≈ 0.835 µM)	94 nM	–
CCCCC(CC(=O)NO)[S+]([O-])c1ccc(OC)cc1 (stereo not given)	2 µg/mL (≈ 6.68 µM)	< 0.25 µg/mL	99 nM	–
CCC(CC(=O)NO)S(=O)(=O)c1ccccc1 (stereo not given)	> 64 µg/mL	> 64 µg/mL	–	–
CCCCC(CC(=O)NO)S(=O)(=O)c1ccc2ccccc2c1 (stereo not given)	8 µg/mL (≈ 23.9 µM)	0.5 µg/mL (≈ 1.49 µM)	23 nM	IC50 [2]: 450000 nM; IC50 (Matrilysin): 1500 nM; IC50 (Collagenase 3): 9 nM; IC50 (Interstitial collagenase): 70 nM; IC50 [3]: 13 nM; IC50 (Neprilysin [6]): 500 nM; IC50 [5]: 12400 nM
CCCCC(CC(=O)NO)S(=O)(=O)c1ccc(NC(C)=O)cc1 (stereo not given)	16 µg/mL (≈ 46.7 µM)	1 µg/mL (≈ 2.92 µM)	11 nM	–
O=C(CC(c1ccccc1)S(=O)(=O)c1ccccc1)NO (stereo not given)	32 µg/mL (≈ 105 µM)	8 µg/mL (≈ 26.2 µM)	160 nM	–
O=C(CC(c1ccc2c(c1)OCO2)S(=O)(=O)c1ccccc1)NO (stereo not given)	16 µg/mL (≈ 45.8 µM)	1 µg/mL (≈ 2.86 µM)	–	–
CCCCC(CC(=O)NO)S(=O)(=O)Cc1ccccc1 (stereo not given)	128 µg/mL (≈ 428 µM)	16 µg/mL (≈ 53.4 µM)	190 nM	–
O=C(CC(c1ccco1)S(=O)(=O)c1ccccc1)NO (stereo not given)	32 µg/mL (≈ 108 µM)	4 µg/mL (≈ 13.5 µM)	–	–
CCCCC[C@H](CC(=O)NO)C(=O)N[C@H](C(=O)N1CCC[C@H]1CO)C(C)C [ACTINONIN]	1 µg/mL (≈ 2.59 µM)	< 0.06 µg/mL	–	MIC (Bacillus subtilis): 8 µg/mL (≈ 20.8 µM); MIC (Chlamydia pneumoniae): 4 µg/mL (≈ 10.4 µM); MIC (Escherichia coli [7]): 64 µg/mL (≈ 166 µM); MIC (Enterococcus faecalis): > 128 µg/mL; MIC (Enterococcus faecium): > 128 µg/mL; MIC (Haemophilus influenzae): 2 µg/mL (≈ 5.19 µM); MIC [8]: > 64 µg/mL; MIC (Pseudomonas aeruginosa): > 128 µg/mL; MIC (Staphylococcus aureus): 32 µg/mL (≈ 83 µM); MIC (Streptococcus pneumoniae [9]): 32 µg/mL (≈ 83 µM); MIC [10]: 16 µg/mL (≈ 41.5 µM); MIC (Streptococcus pneumoniae [11]): 128 µg/mL (≈ 332 µM)
